According to the supplement of paper PMC12420376:

What was measured:
[1] = system: KURAMOCHI; test: drug sensitivity score (DSS2) on cancer cell count; higher = more sensitive; extreme values may be limits of the assay; details: 72 h
In short: (§1)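 Ovarian cancer cells were cultured either alone or directly mixed 1:1 with lung or skin fibroblasts and plated onto 384-well plates acoustically pre-spotted with 528 approved and investigational compounds at 5 concentrations for 72 h of treatment. After fixation, cells were immunostained for CK8/18 with Hoechst and imaged at 10× across 4 fields to count cancer cells. Responses were fitted with 4-parameter logistic curves, and from these fits a drug sensitivity score was derived in Breeze, with screen quality assessed by Z'.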

[2] = system: OVCAR8; test: as above; details: 72 h
In short: as §1

[3] = co-cultured fibroblast: BJHTERT
[4] = co-cultured fibroblast: none (monoculture)

Row | Structure (SMILES) | drug sensitivity score [1, 3] | drug sensitivity score ([1]; co-cultured fibroblast: WI38) | drug sensitivity score [1, 4] | drug sensitivity score [2, 3] | drug sensitivity score ([2]; co-cultured fibroblast: WI38) | drug sensitivity score [2, 4]
1 | Cn1ncc(Cl)c1-c1cc(C(=O)N[C@H](CN)Cc2ccc(F)c(F)c2)oc1Cl [Uprosertib] | 0.5 DSS | 4.4 DSS | 2 DSS | 0.6 DSS | 0 DSS | 0.1 DSS
2 | CS(=O)(=O)c1ccc(-c2cnc(N)c(C(=O)Nc3ccccc3)n2)cc1 [VE-821] | 0 DSS | 0 DSS | 0 DSS | 3.1 DSS | 0 DSS | 0 DSS
3 | O=C(O)CC1CC(c2ccccc2)=NO1 (configuration not stated) [VGX-1027] | 0 DSS | 0 DSS | 0 DSS | 0.3 DSS | 0 DSS | 0 DSS
4 | C=CC(=O)N1CC/C(=C\c2ccc(F)c([N+](=O)[O-])c2)C(=O)/C(=C/c2ccc(F)c([N+](=O)[O-])c2)C1 [VLX1570] | 27.4 DSS | 24.7 DSS | 29 DSS | 24.8 DSS | 31.1 DSS | 31.7 DSS
5 | CNC(=O)c1ccccc1Nc1cc(Nc2ccc(N3CCOCC3)cc2OC)ncc1C(F)(F)F [VS-4718] | 9 DSS | 7.9 DSS | 14.2 DSS | 6.7 DSS | 3.5 DSS | 8.5 DSS
6 | CCCC(CCC)C(=O)O [Valproic acid] | 0 DSS | 0 DSS | 0 DSS | 0 DSS | 0 DSS | 0 DSS
7 | CCCCC(=O)OCC(=O)[C@]1(O)Cc2c(O)c3c(c(O)c2[C@@H](O[C@H]2C[C@H](NC(=O)C(F)(F)F)[C@H](O)[C@H](C)O2)C1)C(=O)c1c(OC)cccc1C3=O [Valrubicin] | 19.7 DSS | 17.1 DSS | 24.1 DSS | 17.6 DSS | 15.3 DSS | 18.4 DSS
8 | COc1cc2/c(=N/c3ccc(Br)cc3F)nc[nH]c2cc1OCC1CCN(C)CC1 [Vandetanib] | 0 DSS | 2.6 DSS | 10.6 DSS | 0 DSS | 0 DSS | 2.1 DSS
9 | CCc1c(C(=O)C(N)=O)c2c(OCC(=O)O)cccc2n1Cc1ccccc1 [Varespladib] | 0 DSS | 0 DSS | 0 DSS | 0 DSS | 0 DSS | 3.4 DSS
10 | C[C@@H]1COC(Nc2ccc3ncnc(Nc4ccc(OCc5nccs5)c(Cl)c4)c3c2)=N1 [Varlitinib] | 1.5 DSS | 2.1 DSS | 0 DSS | 0 DSS | 2 DSS | 1.4 DSS
11 | Clc1ccc(Nc2nnc(Cc3ccncc3)c3ccccc23)cc1 [Vatalanib] | 0 DSS | 0.7 DSS | 0 DSS | 0.2 DSS | 0 DSS | 0 DSS
12 | C[C@]1(c2nc3c(C(N)=O)cccc3[nH]2)CCCN1 [Veliparib] | 0.4 DSS | 0 DSS | 0 DSS | 5 DSS | 3.1 DSS | 0.5 DSS
13 | CCCS(=O)(=O)Nc1ccc(F)c(C(=O)c2c[nH]c3ncc(-c4ccc(Cl)cc4)cc23)c1F [Vemurafenib] | 0 DSS | 0 DSS | 0.8 DSS | 0 DSS | 1.1 DSS | 1.3 DSS
14 | CC1(C)CCC(CN2CCN(c3ccc(C(=O)NS(=O)(=O)c4ccc(NCC5CCOCC5)c([N+](=O)[O-])c4)c(Oc4cnc5[nH]ccc5c4)c3)CC2)=C(c2ccc(Cl)cc2)C1 [Venetoclax] | 0 DSS | 0 DSS | 0 DSS | 0 DSS | 0 DSS | 2.3 DSS
15 | O=C(/C=C\n1cnc(-c2cc(C(F)(F)F)cc(C(F)(F)F)c2)n1)NNc1ccccn1 [Verdinexor] | 8.4 DSS | 9.1 DSS | 16.7 DSS | 10.2 DSS | 7.1 DSS | 16.6 DSS
16 | CCCCOc1nc(N)c2c(n1)N(Cc1cccc(CN3CCCC3)c1)CC(=O)N2 [Vesatolimod] | 2.9 DSS | 0 DSS | 0 DSS | 0.4 DSS | 0 DSS | 0 DSS
17 | COc1cccc(-c2ccc(NC(=O)C3=C(C(=O)O)CCC3)c(F)c2)c1 [Vidofludimus] | 1.5 DSS | 0.4 DSS | 1.9 DSS | 0 DSS | 1.6 DSS | 2 DSS
18 | CC[C@]1(O)C[C@@H]2CN(CCc3c([nH]c4ccccc34)[C@@](C(=O)OC)(c3cc4c(cc3OC)N(C)[C@H]3[C@@](O)(C(=O)OC)[C@H](OC(C)=O)[C@]5(CC)C=CCN6CC[C@]43[C@@H]65)C2)C1 [Vinblastine] | 4.9 DSS | 4.2 DSS | 20.8 DSS | 18.9 DSS | 5.2 DSS | 15.7 DSS
19 | CC[C@]1(O)C[C@H]2CN(CCc3c([nH]c4ccccc34)[C@@](C(=O)OC)(c3cc4c(cc3OC)N(C=O)[C@H]3[C@@](O)(C(=O)OC)[C@H](OC(C)=O)[C@]5(CC)C=CCN6CC[C@]43[C@@H]65)C2)C1 [Vincristine] | 7.5 DSS | 5 DSS | 23.4 DSS | 11.5 DSS | 9.3 DSS | 11.9 DSS
20 | CC[C@]12C=CCN3CC[C@@]4(c5cc([C@@]6(C(=O)OC)C[C@@H]7C[C@@H](C(C)(F)F)CN(Cc8c6[nH]c6ccccc86)C7)c(OC)cc5N(C)[C@H]4[C@@](O)(C(=O)OC)[C@@H]1OC(C)=O)[C@@H]32 [Vinflunine] | 3.1 DSS | 7 DSS | 7.9 DSS | 6.9 DSS | 3.7 DSS | 3.9 DSS
21 | CCC1=C[C@@H]2CN(C1)Cc1c([nH]c3ccccc13)[C@@](C(=O)OC)(c1cc3c(cc1OC)N(C)[C@H]1[C@@](O)(C(=O)OC)[C@H](OC(C)=O)[C@]4(CC)C=CCN5CC[C@]31[C@@H]54)C2 [Vinorelbine] | 29.3 DSS | 25.7 DSS | 25.6 DSS | 38.8 DSS | 33 DSS | 29.3 DSS
22 | CS(=O)(=O)c1ccc(C(=O)Nc2ccc(Cl)c(-c3ccccn3)c2)c(Cl)c1 [Vismodegib] | 0 DSS | 0 DSS | 0 DSS | 0 DSS | 6.8 DSS | 0 DSS
23 | CNC(=O)c1cccc(-c2ccc3c(N4CCOC[C@@H]4C)nc(N4CCOC[C@@H]4C)nc3n2)c1 [Vistusertib] | 10.6 DSS | 8.3 DSS | 7.5 DSS | 13.1 DSS | 7.6 DSS | 16.1 DSS
24 | CC[C@@H]1C(=O)N(C)c2cnc(Nc3ccc(C(=O)N[C@H]4CC[C@H](N5CCN(CC6CC6)CC5)CC4)cc3OC)nc2N1C(C)C [Volasertib] | 16.4 DSS | 17.9 DSS | 21.4 DSS | 26.5 DSS | 21.5 DSS | 24.7 DSS
25 | O=C(CCCCCCC(=O)Nc1ccccc1)NO [Vorinostat] | 9.5 DSS | 9.7 DSS | 5.5 DSS | 17.1 DSS | 22.8 DSS | 9.4 DSS
26 | Oc1nc(-c2ccc(C(F)(F)F)cc2)nc2c1CSCC2 [XAV-939] | 1.1 DSS | 0 DSS | 0.5 DSS | 0.6 DSS | 0.1 DSS | 0.3 DSS
27 | FC(F)c1nc2ccccc2n1-c1nc(N2CCOCC2)nc(N2CCOCC2)n1 [ZSTK474] | 15 DSS | 12.7 DSS | 10.9 DSS | 5.3 DSS | 0 DSS | 9.8 DSS
